This note sets out measurements from ChEMBL document CHEMBL1201862, “PubChem BioAssay data set” (2004).

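Briefly, cells in 96-well plates were exposed to five compound concentrations for 48 h, and endpoints were estimated by linear interpolation. GI50 = concentration required for 50% inhibition of growth.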 Activity calls are given as the source filed them. Rule as the data show it: active = GI50 up to about 1.1 µM and inactive = higher. Some results are limits rather than exact numbers.

Test systems include LOX IMVI; NCI-H522; Hs-578T; RPMI-8226; TK-10; IGROV-1; MOLT-4; HOP-92; HT-29; SK-OV-3; MDA-MB-435; A549; Malme-3M; HL-60; OVCAR-8; NCI-H23; KM12; SK-MEL-2; SNB-19; NCI/ADR-RES.
Holding throughout (assay): growth of human tumour cells (NCI), 48 h

As to `Cc1ccc(S(=O)(=O)N/N=C2\CC3CC4CCC2C4C3)cc1` (stereo unspecified), the GI50 in the test with LOX IMVI, in the test with NCI-H522, in the test on Hs-578T, in the test on RPMI-8226, in the test with TK-10 and with IGROV-1 was > 100 µM (inactive) throughout. Besides, the GI50 with MOLT-4, with HOP-92, in the test on HT-29, with SK-OV-3, with MDA-MB-435 and in the test on A549 was > 100 µM (inactive) throughout. Also, the GI50 in the test on Malme-3M, in the test with HL-60, with OVCAR-8, with NCI-H23 and in the test on KM12 was > 100 µM (inactive) each time.
Regarding `CC(C)(O)C1CC(=O)C(C)(C2C(O)CC3(C)C4CC=C5C(CCC(O)C5(C)C)C4(C)C(=O)CC23C)O1` (stereo unspecified), the GI50 in the test on LOX IMVI, with NCI-H522, in the test with SK-MEL-2, in the test with Hs-578T, in the test on RPMI-8226 and in the test with TK-10 was > 100 µM (inactive) in each case. The GI50 in the test on IGROV-1 is > 100 µM (inactive); with MOLT-4, > 100 µM (inactive); in the test on HOP-92, 91.8 µM (inactive); in the test on HT-29, > 100 µM (inactive); in the test on SNB-19, > 100 µM (inactive); in the test on SK-OV-3, > 100 µM (inactive). Besides, the GI50 with MDA-MB-435, in the test on A549, in the test with OVCAR-8, in the test with NCI-H23 and with KM12 was > 100 µM (inactive) in each case.
Turning to `CC1NC(/C(=C/c2ccccc2O)NC(=O)c2ccccc2)OC1=O` (stereo unspecified), the GI50 in the test on LOX IMVI was > 50 µM (inactive); with NCI-H522 it was 24.2 µM (inactive); in the test with SK-MEL-2 it was > 50 µM (inactive); in the test with NCI/ADR-RES, > 50 µM (inactive); with RPMI-8226, > 50 µM (inactive); in the test on TK-10 it was > 50 µM (inactive). Moreover, the GI50 is 14 µM (inactive) in the test on IGROV-1; > 50 µM (inactive) in the test with MOLT-4; 11 µM (inactive) in the test on HOP-92; > 50 µM (inactive) with HT-29; > 50 µM (inactive) in the test with SNB-19; 48.2 µM (inactive) in the test with SK-OV-3. The GI50 is 28.8 µM (inactive) in the test on MDA-MB-435; > 50 µM (inactive) in the test with A549; 9.31 µM (inactive) with Malme-3M; 23.3 µM (inactive) in the test on HL-60; > 50 µM (inactive) with OVCAR-8; > 50 µM (inactive) in the test with NCI-H23. Moreover, the GI50 with KM12 is 4.74 µM (inactive).
As to `CN(C)c1ccc(C=c2c3ccccc3n3c2cc(-c2ccc(Cl)cc2)[n+]3C)cc1`, the GI50 is 0.194 µM (active) with LOX IMVI; 0.0577 µM (active) in the test on NCI-H522; 0.237 µM (active) in the test on SK-MEL-2; 6.41 µM (inactive) in the test with NCI/ADR-RES; 0.0372 µM (active) with RPMI-8226; 0.578 µM (active) in the test on TK-10. Besides, the GI50 with MOLT-4 was 0.147 µM (active); in the test with HOP-92 it was 0.221 µM (active); in the test on HT-29, 0.315 µM (active); in the test on SNB-19, 0.268 µM (active); with SK-OV-3, 0.331 µM (active); in the test with MDA-MB-435, 0.207 µM (active). Besides, the GI50 in the test with A549 is 0.238 µM (active); in the test on Malme-3M, 0.333 µM (active); in the test on HL-60, 0.101 µM (active); with OVCAR-8, 0.147 µM (active); with NCI-H23, 0.195 µM (active); in the test with KM12 it was 0.105 µM (active).
